The text below walks through data of patent US6211209A, “Method of inhibiting connective tissue degradation” (Warner-Lambert Company, priority 1998, dated 2001).

One may read the IC50 as the concentration needed to halve the response being measured. High values mean weaker potency in that assay, low ones greater potency in that assay.

The test system of experiment [1] is cartilage. Nature of the experiment: Rabbit model of IL-1α-induced cartilage degradation (intra-articular injection, knee joint). The experiment is classed as in vivo. To be noted: for Proteoglycan Loss (% Control): 24 hours (IL-1α alone 35.40 ± 3.12). Here is the method:
Rabbits (3.0-3.2 kg) were obtained from Hazelton (Denver, Pa.); Xylazine from W. A. Butler (Columbus, Ohio); Rompun from Miles Inc, (Shawnee Mission, Kans.); Ketamine HCl from Aveco (Fort Dodge Labs, Fort Dodge, Iowa); Pentobarbital from Western Medical Supply (Acadia, Calif.); human recombinant Interleukin-1α (IL-1α) from Genzyme (Cambridge, Mass.); Cetus Pro/Pette (Perkin Elmer, Norwalk, Conn.); Biomek 1000 (Beckman, Fullerton, Calif.).
The assay was performed in two phases. The hind leg knee joints were first injected with IL-1α and compound for 24 hours. The proteoglycan content of cartilage was then quantified by measuring chondroitin sulfate present using the 1,9-Dimethylmethylene Blue Assay (DMB).
Each treatment was done in quadruplicate, necessitating twelve animals per study. Rabbits were anesthetized by injecting intramuscularly 0.9 mL Rompun combined with 1.8 mL Ketoset. Hind leg knee area was shaved and wiped with 70% EtOH and both drug and IL-1α were injected intra-articulary (27-gauge needle) in succession.
0.5 mL DMSO/Saline and 0.5 mL PBS/0.2% FCS.
0.5 mL DMSO/Saline containing 8 μg Compound 1 and 2500 U/0.5 mL IL-1α.
0.5 mL DMSO/Saline containing 8 μg Compound 1 and 0.5 mL PBS/0.2% FCS.
0.5 mL DMSO/Saline containing 24 μg Compound 1 and 0.5 mL IL-1α.
0.5 mL DMSO/Saline containing 24 μg Compound 1 and 0.5 mL PBS/0.2% FCS. […]
The ability of a compound to inhibit proteoglycan release from cartilage pieces was quantified by measuring chondroitin sulfate. […] This color change was measured using a Titertek Multiscan MCC 340 plate reader at 540 nm. […] The DMB assay was performed by adding 10 μL of samples to 290 μL DMB (16 mg dye/L of 0.1 M formate buffer, pH 3.5, containing 5 mL ethanol) and reading at 540 nm. Once the experiment was completed the total amount of proteoglycan remaining in the cartilage pieces was determined by digesting cartilage samples with papain and then performing 1,9 DMB assay on the digest. […] Digested material was diluted (1:5, 1:10, 1:20) and chondroitin sulfate values determined using the 1,9 DMB assay.

Experiment [2] has as its system bovine nasal cartilage. The experiment is described as follows: Bovine nasal cartilage assay: inhibition of IL-1β-induced proteoglycan loss (chondroitin sulfate by 1,9 DMB). Format: cell-based. Conditions: Bos taurus; concentration preventing 50% of proteoglycan loss; IL-1β-stimulated cartilage plugs. Here is the method:
The BNC (bovine nasal cartilage) assay provides a model for evaluating chrondroprotective compounds that block cartilage degradation through inhibition of enzyme activity or by altering the gene expression of the matrix metalloproteinases such as stromelysin.
The assay is accomplished in two phases. The cartilage plugs are first incubated with IL-1β in the presence of the compounds of the present method. The amount of proteoglycan released is then quantified by measuring chondroitin sulfate present in the media using the 1,9-Dimethylmethylene Blue Assay (1,9 DMB).
Bovine nasal septum is dissected free of surrounding tissue and wiped with 70% alcohol. A sterile cork borer is used to remove 5-mm cartilage disks of 2- to 3-mm thickness. Explants are equilibrated for 96 hours in F-12 supplemented with 10% fetal calf serum (FCS) and antibiotics at 37° C. in a humidified atmosphere of 95% air and 5% CO2. Explants are then rinsed with 1 mL F-12 Nutrient Mixture (without phenol red) in order to remove traces of FCS. Each treatment group is done in triplicate allowing: controls (500 μL F-12 medium +110 μL PBS with 0.1% BSA +7 μL DMSO); IL-1β (500 μL F-12 medium without phenol red +100 μL IL-1β (500 U) +7 μL DMSO +10 μL PBS with 0.1% BSA); and dose responses (10, 1, and 0.1 μM) (F-12 medium without phenol red +100 μL IL-1β (500 U) +7 μL compound dissolved in DMSO +10 μL PBS with 0.1% BSA), to be tested per each 24-well plate. The cartilage plugs are incubated in the presence of conditioned media (IL-1β+compound) for 48 hours. Fresh unconditioned media (no IL-1β or compound) is added and incubated for an additional 24 hours. Both the conditioned and unconditioned media are collected and saved for analysis using the 1,9 DMB assay.
The ability of a compound to inhibit proteoglycan released from the cartilage plugs is quantified by measuring chondroitin sulfate. This is done using the calorimetric 1,9 DMB assay. Depending on the amount of chondroitin sulfate present in the media a color change will occur turning the normally deep blue dye, vivid pink. This color change is measured using a Titertek Multiscan MCC 340 plate reader at 540 nm. A Cetus Pro/Pette is used to speed dilution and pipetting steps. The Cetus uses Sarstedt vials, designed for radioimmune assays, which have been inserted into Sarstedt 96-vial aluminum racks. The first row of 12 slots is left empty in order to accommodate the chondroitin sulfate standards (0.01-0.32 μg/mL shark chondroitin sulfate in 0.1 M phosphate buffer, pH 7.0, containing 0.01 M L-cysteine HCl and 0.05 M EDTA). It is necessary to dilute (1:5, 1:10) the medium before a […] is performed by adding 10 μL of collected media to 290 μL DMF (16 mg dye/1 L of 0.1 M formate buffer, pH 3.5, containing 5 mL ethanol) and reading at […]. Dilutions are performed on both the 48-hour and 72-hour media samples collected and saved earlier. Once the experiment has been completed, in order to determine the total amount of proteoglycan remaining in the plugs, they are subjected to papain digestion. Cartilage explants are digested in 20-mL glass scintillation vials by adding 50 μL papain in 1.0 mL cysteine buffer (0.01 M phosphate buffer, pH 7.0 containing 0.01 M L-cysteine HCl and 0.05 M EDTA). Digested material is diluted (1:60) and chondroitin sulfate values determined using the 1,9 DMB assay.
Determination of chondroitin sulfate in each sample is accomplished by subtracting the constant value determined from the linear regression performed on the standard curve, from the O.D. value for a particular well, and then dividing by the X coefficient calculated from the linear regression done on the standard curve. Each experimental well is split into two samples for determining chondroitin sulfate values, then the two are averaged. […]

For `S=c1[nH]nc(-c2ccccc2Nc2ccccc2)o1` [Compound 1, 5-(2-Phenylamino-phenyl)-3H-[1,3,4]oxadiazole-2-thione], the “Proteoglycan Loss (% Control)” value in experiment [1] (8 μg/jt with IL-1α) worked out at 18.78 ± 10.98 % Control; in experiment [1] (24 μg/jt with IL-1α, * significantly different from IL-1α alone), 9.35 ± 7.26 % Control. For the same molecule, the inhibiting cartilage degradation entry in experiment [1] (8 and 24 μg/joint, 24 hours) is given as “effective in inhibiting cartilage degradation in a dose-dependent manner”. In experiment [2], this molecule gave an IC50 of 830 nM.
